Test results: US10406169B2, “Methods of monitoring estriol therapy” (The Regents of the University of California, priority 2015, dated 2019)

Key:
Format in all cases: in vivo, human
[1] = Serum estriol levels in the clinical trial
Description: Safety assessments, including clinical, blood laboratory safety testing and assessments of estriol levels, occurred at months 0, 3, 6, 12, 18, and 24. On study blood tests included complete blood count (CBC) with differential and platelets; chemistry panel including sodium, potassium, creatinine, BUN, glucose, total protein, albumin, bilirubin (total), alkaline phosphatase, AST (SGOT), and ALT (SGPT), and lipid profile (HDL, LDL and triglycerides, cholesterol. Gynecologic exams were done at month 0, 6, 18 and at month 24 exit, with uterine ultrasounds at months 6, 18 and at month 24 exit. Mammograms were done in screening and at month 24 exit. Adverse event analysis was based on the percentage of patients who discontinued the study and the percentage of patients who discontinued the study possibly due to adverse events.
Free estriol levels were also measured and followed a similar pattern of change within individuals as total levels, with absolute free levels a fraction of the magnitude of the absolute total levels as expected.

[2] = tested on: relapsing-remitting multiple sclerosis; assay: Disability and questionnaire outcomes (EDSS, MFIS, BDI, MSQOL); settings: for Proportion of pts with disability (EDSS) progression at 24 months % (95% CI): Kaplan-Meier
Description: EDSS assessments were performed by physicians who were trained either by in-person training or online (www.Neurostatus.net). […] Tertiary end points included gray matter atrophy on MRI, and changes in results from baseline on questionnaires including the Modified Fatigue Impact Scale, Beck Depression Inventory, and MS Quality of Life. Mixed effects negative binomial regression model and linear mixed effects model were used to compare enhancing lesion volume (log-transformed) between treatment groups at all follow-ups, and mixed effects logistic model was used to compare the number of subjects positive for gadolinium enhancing lesions. Linear mixed effects model was carried out to compare the percent change in whole gray matter and cortical gray matter between treatment groups.

[3] = tested on: relapsing-remitting multiple sclerosis; assay: Gadolinium enhancing lesions on brain MRI; parameters: Enhancing lesion volume, mean ± SD: unit not given here
Description: Mixed effects negative binomial regression model and linear mixed effects model were used to compare enhancing lesion volume (log-transformed) between treatment groups at all follow-ups, and mixed effects logistic model was used to compare the number of subjects positive for gadolinium enhancing lesions. Linear mixed effects model was carried out to compare the percent change in whole gray matter and cortical gray matter between treatment groups. For the exploratory endpoints of EDSS, PASAT, fatigue, depression, quality of life and brain volume measures, linear mixed effects model was used to compare treatment groups at 12 and 24 months.
Dual-echo fast spin echo: TR10000, TE12/95, 50 slices, 1×1×3 mm. Fluid attenuated inversion recovery (FLAIR): TR10380, TE88, TI88, TI2500, 50 slices, 1×1×3 mm. Minor changes were allowed to accommodate different platforms and field strengths at each site. MRI data in Dicom format were fully anonymized prior to transfer and then uploaded to the central MRI reading center database. Prior to study onset, each site provided a dummy scan utilizing the standardized sequences for review by the central MRI reading center to verify scan quality and fidelity. Quality control was maintained at each site using standard procedures for clinical scanners (daily phantoms, stability testing). Quarterly phantoms were collected from 12 of the 15 sites, most using the standard American College of Radiology (ACR) phatom. One site upgraded from a Siemens 1.5T to a 3.0T in November 2013, resulting in the acquisition of one month 24 scan on the new scanner. One site upgraded from a Phillips Achieva 3.0T to a Pillips Intera 3.0T after the first subject completed month 24. All subsequent studies were performed on the Intera.
Analysis of gadolinium enhancing lesions and T2 lesions were performed as described by Sicotte et al. (Ann. Neurology 52:421 (2002)). Briefly, MRI data was coded by study site and randomization number. The number and volume of enhancing lesions were quantified on the post contrast T1 weighted scans by an experienced investigator who was blind to treatment group using a semi-automated threshold-based algorithm. To assess T2 lesions, all FLAIR images were RF corrected, then intensity normalized and registered into a common space defined by the baseline scan for each individual. All subsequent scans were registered to the baseline exam for spatial normalization using a rigid body model. T2 lesion areas were determined using a semi-automated intensity based segmentation procedure by a trained, experienced researcher verified by a single investigator (NLS).

[4] = 24 months, negative = improvement

- Serum total estriol level, Mean ± SD ([1]; Month 0): 2.1 ± 2.3 ng/mL
- Serum total estriol level, Median ([1]; Month 0): 1.6 ng/mL
- Serum total estriol level, Mean ± SD ([1]; Month 3): 2.1 ± 1.6 ng/mL
- Serum total estriol level, Median ([1]; Month 3): 1.8 ng/mL
- Serum total estriol level, Mean ± SD ([1]; Month 6): 1.9 ± 1.4 ng/mL
- Serum total estriol level, Median ([1]; Month 6): 1.8 ng/mL
- Serum total estriol level, Mean ± SD ([1]; Month 12): 2.0 ± 1.4 ng/mL
- Serum total estriol level, Median ([1]; Month 12): 1.8 ng/mL
- Serum total estriol level, Mean ± SD ([1]; Month 18): 1.8 ± 1.2 ng/mL
- Serum total estriol level, Median ([1]; Month 18): 1.8 ng/mL
- Serum total estriol level, Mean ± SD ([1]; Month 24): 1.8 ± 1.1 ng/mL
- Serum total estriol level, Median ([1]; Month 24): 1.6 ng/mL
Substance: glatiramer acetate [Placebo + GA]
- Serum estriol concentrations (in words) ([1]; Month 3): did not exceed the estriol assay detection limit
- Beck Depression Inventory (BDI) score median change from baseline [2, 4]: −3.5
- MFIS score median change from baseline [2, 4]: 0
- Proportion of pts with disability (EDSS) progression at 24 months % (95% CI) [2]: 15.8 (8.8-27.6) %
- Proportion of pts with disability (EDSS) progression at 24 months % (95% CI) ([2]; listed as Placebo plus GA): 15.8%
- MSQOL composite scores for Physical outcomes ([2]; change from baseline): no change
- EDSS score reduction from baseline to Month 24, Mean ± SD ([2]; in vivo): 0.05 ± 1.13
- EDSS score reduction from baseline to Month 24, Median ([2]; in vivo): 0.0
- EDSS absolute median change from baseline ([2]; month 24, negative = improvement): 0
- Enhancing lesion volume, mean ± SD ([3]; Baseline): 49.9 ± 121.2
- Enhancing lesion volume, median ([3]; Baseline): 0
- Percentage patients with enhancing lesions % (95% CI) ([3]; Baseline): 29.3 (19.0-39.6) %
- Enhancing lesion volume, mean ± SD ([3]; Month 12): 27.4 ± 147.2
- Enhancing lesion volume, median ([3]; Month 12): 0
- Percentage patients with enhancing lesions % (95% CI) ([3]; Month 12): 21.0 (10.8-31.1) %
- Enhancing lesion volume, mean ± SD ([3]; Month 24): 17.9 ± 71.1
- Enhancing lesion volume, median ([3]; Month 24): 0
- Percentage patients with enhancing lesions % (95% CI) ([3]; Month 24): 14.6 (5.2-23.9) %
- Decrease in enhancing lesion volumes ([3]; month 12 vs baseline): 45%
